“And” between values parts separate entries of the source, which are not always exact repeats. Equal entries are not always repeated.
target: T1, GRK2 (Homo sapiens, UniProt P25098); test: biochemical; conditions: GRK2 IC50 (μM), 10 nM GRK2; 10 uM ATP
T1 sequence (P25098 1-689): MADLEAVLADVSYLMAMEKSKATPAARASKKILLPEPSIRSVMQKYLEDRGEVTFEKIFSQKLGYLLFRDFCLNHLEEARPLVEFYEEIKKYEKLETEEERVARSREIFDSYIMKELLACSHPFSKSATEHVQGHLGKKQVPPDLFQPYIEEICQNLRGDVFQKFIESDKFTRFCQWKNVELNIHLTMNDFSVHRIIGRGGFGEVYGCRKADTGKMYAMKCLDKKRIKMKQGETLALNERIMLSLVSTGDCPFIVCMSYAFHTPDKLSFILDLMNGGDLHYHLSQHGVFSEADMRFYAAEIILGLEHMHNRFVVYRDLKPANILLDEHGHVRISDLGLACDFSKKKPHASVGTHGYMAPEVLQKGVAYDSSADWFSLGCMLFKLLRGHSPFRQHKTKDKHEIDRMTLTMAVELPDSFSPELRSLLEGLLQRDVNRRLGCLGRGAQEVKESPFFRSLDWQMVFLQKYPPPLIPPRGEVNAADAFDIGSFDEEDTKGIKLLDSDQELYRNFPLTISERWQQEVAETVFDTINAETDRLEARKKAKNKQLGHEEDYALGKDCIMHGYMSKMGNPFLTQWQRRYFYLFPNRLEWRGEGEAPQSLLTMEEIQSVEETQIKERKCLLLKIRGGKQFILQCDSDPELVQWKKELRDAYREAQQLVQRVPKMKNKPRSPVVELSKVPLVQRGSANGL
Protocol: Positive and negative control wells received an equal volume of DMSO. The final DMSO concentration in the assay is 1%.
The plate was placed in centrifuge equipped with a spin-bucket rotor and spun for 1 min at 1000 rpm.
GRK2 enzymatic reactions were initiated with the addition of 2 μL/well of 50 nM GRK2 in assay buffer. Plates were centrifuged for 1 min at 1000 rpm. For negative control wells, the order of reagent addition was reversed: 10 μL/well ADP detection mix (see below) was added first, followed by the addition of 2 μL/well of the GRK2 solution. Reaction mixtures were incubated at ambient temperature for 2 hours.
Following incubation, the reactions were quenched with 10 μL/well of the Transcreener ADP detection mix. […] The plates were then centrifuged for 1 min at 1000 rpm.
Fluorescence polarization values of the reaction mixtures were read on a Safire II plate reader after a 60 min incubation at ambient temperature. Excitation wavelength=590 nm; emission wavelength=650 nm.
The fluorescence polarization data were converted to % activity as follows:
% activity=(sample−NC)/(PC−NC)*100
where NC is the mean of negative control (ADP detection mix added prior to GRK2 addition), and PC is the mean of positive control (GRK2 reaction without inhibitor). IC50 values are determined from a 4-parameter fit, using the following equation:
Y=Bottom+(Top−Bottom)/(1+10^((Log IC50-X)*Hill slope)),
where X=log10 of the compound concentration.

SMILES	IC50
COc1cccc(Cn2cnc3ccc(-c4cn[nH]c4)cc3c2=O)c1 [Compound 2, 3-(3-Methoxybenzyl)-6-(1H-pyrazol-4-yl)quinazolin-4(3H)-one]	~0.01 µM and 0.011 µM

target: T1, GRK2; test: biochemical; conditions: not given
Protocol: hGRK2 LANCE Ultra In Vitro Assay
G-protein coupled receptor kinases (GR Kinases) desensitize activated G-protein coupled receptors (GPCRs), by phosphorylation of cytoplasmic loops or carboxyl-terminal tails of GPCRs. GRK2 is one of the 6 different GR kinases and is implicated in heart failure and diabetes.
This assay is sensitive and requires as low as 10 nM enzyme, in a total volume of 10 μL. In addition, the ATP concentration can be varied over a broad range, without interfering with the assay or changing the assay condition. […] Testing inhibitors routinely at both high and low ATP concentrations also enables identification of potential non-ATP competitive inhibitors.
Paroxetine was used as the reference compound in this assay.
Test compounds were dissolved in DMSO at 1 mM and were 3-fold serial diluted. The compound DMSO solutions were then added (100 nL) into a plate well using an acoustic dispenser. To each well was then added 20 nM GRK2 (5 μL) in assay buffer (20 mM HEPES, pH 7.5, 10 mM MgCl2, 0.001% Tween-20®). The plate was sealed and centrifuged at 1000 rpm for 1 min.
The plate and wells containing a mixture of GRK2 and test compound were incubated at ambient temperature for 30 min (prior to initializing the enzymatic reaction).
Enzyme reactions were initiated by the addition of 4.9 μL Substrates/Eu-Ab mix to each well.
The plates were sealed and centrifuged at 1000 rpm for 1 min.
The enzyme reactions were quenched by addition of 10 μL of 12 mM EDTA in 1× LANCE detection solution to each well. The plates were then incubated at ambient temperature for 30 min.
The raw HTRF data were converted to % active as follows:
% active=(sample−NC)/(PC−NC)*100

SMILES	IC50
COc1cccc(Cn2cnc3cc(OC)c(-c4cn[nH]c4)cc3c2=O)c1 [Compound 6, 7-Methoxy-3-[(3-methoxyphenyl)methyl]-6-(1H-pyrazol-4-yl)quinazolin-4-one]	0.016 µM
CCOc1cccc(Cn2cnc3ccc(-c4cn[nH]c4)c(F)c3c2=O)c1 [Compound 8, 3-(3-Ethoxybenzyl)-5-fluoro-6-(1H-pyrazol-4-yl)quinazolin-4(3H)-one]	0.029 µM
COc1cccc(Cn2cnc3ccc(-c4cn[nH]c4)c(OC)c3c2=O)c1 [Compound 5, 5-Methoxy-3-[(3-methoxyphenyl)methyl]-6-(1H-pyrazol-4-yl)quinazolin-4-one]	0.009 µM
COc1cccc(Cn2c(C)nc3ccc(-c4ccnc(N)n4)cc3c2=O)c1 [Compound 10, 6-(2-Aminopyrimidin-4-yl)-3-[(3-methoxyphenyl)methyl]-2-methyl-quinazolin-4-one]	0.371 µM
COc1cccc(C(C(=O)O)n2cnc3ccc(-c4cn[nH]c4)cc3c2=O)c1 (stereo not shown) [Compound 12, (3-Methoxyphenyl)-2-[4-oxo-6-(1H-pyrazol-4-yl)quinazolin-3-yl]acetic acid]	2.55 µM
COC(=O)C(c1cccc(OC)c1)n1cnc2ccc(-c3cn[nH]c3)cc2c1=O (stereo not shown) [Compound 11, Methyl 2-(3-methoxyphenyl)-2-[4-oxo-6-(1H-pyrazol-4-yl)quinazolin-3-yl]acetate]	1.41 µM
COc1cccc(Cn2cnc3ccc(-c4cn[nH]c4)c(C#N)c3c2=O)c1 [Compound 1, 3-(3-Methoxybenzyl)-4-oxo-6-(1H-pyrazol-4-yl)-3,4-dihydroquinazoline-5-carbonitrile]	0.005 µM
COc1cccc(Cn2cnc3c(F)cc(-c4cn[nH]c4)cc3c2=O)c1 [Compound 9, 8-Fluoro-3-[(3-methoxyphenyl)methyl]-6-(1H-pyrazol-4-yl)quinazolin-4-one]	0.093 µM
COc1cccc(Cn2cnc3ccc(-c4cn[nH]c4)c(F)c3c2=O)c1 [Compound 3, 5-Fluoro-3-(3-methoxybenzyl)-6-(1H-pyrazol-4-yl)quinazolin-4(3H)-one]	0.007 µM
COc1cccc(Cn2cnc3ccc(-c4cn[nH]c4)c(Cl)c3c2=O)c1 [Compound 7, 5-Chloro-3-[(3-methoxyphenyl)methyl]-6-(1H-pyrazol-4-yl)quinazolin-4-one]	0.016 µM
COc1cccc(Cn2cnc3ccc(-c4cn[nH]c4)c(O)c3c2=O)c1 [Compound 4, 5-Hydroxy-3-(3-methoxybenzyl)-6-(1H-pyrazol-4-yl)quinazolin-4(3H)-one]	0.009 µM

same assay, conditions: 10 nM GRK2; ATP 30 or 600 μM, not stated which; read-out: GRK2 Lancer IC50

SMILES	IC50
COc1cccc(Cn2cnc3ccc(-c4cn[nH]c4)cc3c2=O)c1 [Compound 2, 3-(3-Methoxybenzyl)-6-(1H-pyrazol-4-yl)quinazolin-4(3H)-one]	0.006 µM

Source: patent US20220267298A1 (priority 2019, published 2022)
